# Measurements published in patent US20250250613A1, “DISCOVERY OF BACTERIAL AIEGEN THAT LIGHTS UP SPECIFIC G-QUADRUPLEXES” (Southern Marine Science and Engineering Guangdong …, priority 2024, published 2025).
# Experiments:
# [1] = system: c-kit2 (SEQ ID NO: 3) DNA G4; test: Photoluminescence test of HMPQ with c-kit2 G4 (turn-on, Stern-Volmer plot, LOD); assay type: binding
# Experimental: Single DNA nucleotides were purchased from Integrated DNA Technologies. The DNA sample at 100 μM (single strands) was then re-annealed by heating to 95° C. for 15 min, followed by slow cooling to room temperature overnight in an annealing buffer of 70 mM KCl and 20 mM potassium phosphate (pH 7.0). The final NMR samples contained 0.1 mM DNA or RNA in 20 mM potassium phosphate buffer (pH 7.0) and 70 mM KCl.
# The intriguing conformational change observed in HMPQ led to exceptional emission performance, prompting us to explore its application as a fluorescent probe. The inherent two-planar aromatic rings of HMPQ offer the potential for interaction with the guanine tetrad or conjugation with side chains of novel nucleic acid secondary structures, G4s^45,46. To evaluate the binding affinity of HMPQ, a series of photoluminescence tests was conducted using various G4 samples introduced with HMPQ (Table 5).
# To delve deeper into the sensitivity of HMPQ as a fluorescent G4 probe, the PL spectra of HMPQ (0.15 mM) were obtained with varying concentrations of c-kit2, as illustrated in FIG. 5B. […] According to the equation for limit of detection (LOD), LOD=3 SB/m (SB=the standard deviation of the repeated 10 blank measurements, and m=the slope of the relative intensity over […]), it was calculated as 28.7 nM^49,50. […]
# [2] = system: regular double-stranded or single-stranded, or hairpin-structure nucleotides; test: Photoluminescence and NMR titration with non-G4 oligonucleotides; assay type: binding
# Description: Conventional fluorescent probes rely on hydrophobic aromatic rings and π-conjugated chromophores^22. However, their tendency to aggregate in hydrophobic pockets upon binding to nucleic acid strands in aqueous environments often results in the quenching of emitted light. Conversely, AIEgens excel in aqueous media, evading aggregation-caused quenching. […] In embodiments, binding to G4s restricts the mobility of HMPQ molecules, leading to a significant enhancement in fluorescence intensity. CD spectra confirm that HMPQ maintains the original conformation of G4s and its high biocompatibility enables visualization of G4s within the cellular nucleus.
# To verify whether the compounds interacted with G4 DNA, we performed NMR titration experiments by running 1D ^1H NMR spectra at 25° C. All compounds were dissolved in isotope-labelled d6-DMSO (from Sigma-Aldrich) at about 50 mM concentration as stock solutions. To avoid chemical shifts of G4 samples resulting from d6-DMSO addition, 10 μL of d6-DMSO was added into 500 μL of 0.1 mM G4 solution in the NMR buffer (20 mM potassium phosphate buffer and 70 mM KCl, pH 7.0, 10% D2O). Then, a 1D ^1H-NMR spectrum was obtained as a reference. […]
# In addition to fluorescence spectroscopy tests, we performed NMR titration as another prevalent method for assessing binding affinity. […]
# [3] = system: c-kit2 G4; test: CD spectroscopy of c-kit2 G4 with HMPQ; assay type: binding
# Experimental: (§1) CD spectra of G4s with HMPQ were recorded on a Chirascan CD spectrometer at room temperature from 220 nm to 320 nm under liquid mode. A 1 mm-path-length quartz cuvette was used with a 400 μL sample. Each G4 sample was prepared at the same concentration of 15 μM. The compound was mixed with G4s at a molar ratio of 1:10. Each test was scanned three times, and the background of the buffer was subtracted.
# [4] = system: c-kit1 G4; test: CD spectroscopy of c-kit1 G4 with HMPQ; assay type: binding
# Experimental: as §1
# [5] = system: c-myc G4; test: CD spectroscopy of c-myc G4 with HMPQ; assay type: binding
# Experimental: as §1
# [6] = system: HEK293 cells; test: Cytotoxicity assay (thiazolyl blue tetrazolium bromide), HEK293; assay type: cell-based, human; details: even at 100 μM, 24 h
# Experimental: (§2) HEK293 and HeLa cells were purchased from ATCC, and HT22 cells were purchased from Sigma-Aldrich. They were cultured in Dulbecco's modified Eagle's medium (Thermo Fisher Scientific, 11965092) with 10% fetal bovine serum (Thermo Fisher Scientific, 26140079) and 1% penicillin-streptomycin at 37° C. in a humidified incubator with 5% CO2. After 1 day of cell culture, cells were seeded onto 96-well plates with a density of 5000 cells in each well and cultured for another 24 h. Then, HMPQ with different concentrations was added and treated for 24 h. After incubating with 20 μL of thiazolyl blue tetrazolium bromide (5 mg/mL in PBS buffer; Sigma-Aldrich) for 4 h, supernatants were removed, and 100 μL of DMSO was added to dissolve formazan. After shaking for 5 min in darkness, a Multiskan FC microplate was used to measure absorbance at 570 nm.
# [7] = system: HeLa cells; test: Cytotoxicity assay (thiazolyl blue tetrazolium bromide), HeLa; assay type: cell-based, human; details: even at 100 μM, 24 h
# Experimental: as §2
# [8] = system: immortalized mouse hippocampal neuronal cells HT22; test: Cytotoxicity assay (thiazolyl blue tetrazolium bromide), HT22; assay type: cell-based; details: even at 100 μM, 24 h
# Experimental: as §2
# [9] = system: G4s in HeLa cells; test: Confocal cell imaging, co-localization with G4-specific antibody BG4; assay type: cell-based, human
# Experimental: HeLa cells were seeded onto a 12-well plate with coverslips at 37° C. and 5% CO2 for 1 day and incubated with HMPQ at 10 μM overnight. The next day, cells were fixed with 4% paraformaldehyde for 15 min at room temperature and then permeabilized with 0.2% Triton X-100 in PBS for another 10 min. G4-specific antibodies BG4 (Sigma-Aldrich, cat. no. MABE 1126) were added at 1:500 dilution for staining and incubated overnight at 4° C. Cells were washed three times with PBS and then incubated with secondary antibodies (Alexa 647 anti-rabbit for G4) at 1:1000 dilution for 1 h at room temperature. After washing the cells with PBS three times to remove excess secondary, the cells were incubated with DAPI for 5 min and washed with PBS once. The cells on slides were then air dried, mounted onto a Hydromount medium, and observed using a Leica SP8 confocal microscope.
# [10] = Absolute quantum yield of HMPQ in different states; assay type: physicochemical; details: for Quantum Yield (%): excitation 320 nm
# Experimental: Streptomyces chrestomyceticus BCC24770 was acquired from the Thailand Bioresource Research Centre. All oligonucleotides used were bought from Integrated DNA Technologies company (Singapore). NMR spectra were recorded on a 500 M or 800 M Varian spectrometer at 25° C. HRMS data were recorded on a Xevo G2-XS QTOF mass spectrometer from Water's. HPLC analysis or preparation was performed using a Waters HPLC system (Waters 2695 Separations Module; Milford, USA) and monitored under a Waters 2998 Photodiode Array Detector. Semi-preparative HPLC was performed using a Phenomenex Luna C18 column (250 mm×10 mm in size) and designed for a particle size of 5 μm. Single-crystal XRD data were collected on a Rigaku-Oxford Diffraction Supernova Dual Atlas diffractometer. Crystal photos were taken under Nikon ECLIPSE Ts2R fluorescence microscopes. CD spectra were collected using Chirascan Circular Dichroism (CD) Spectrometers. UV-vis absorption spectra were obtained under a Shimadzu UV-2600 spectrophotometer (medium scanning rate and quartz cuvettes of 2 cm path length). Photoluminescence spectra were recorded on an Edinburgh FS5 Spectrofluorometer. Absolute quantum yield was collected using an integrating sphere on a Hamamatsu Quantum Yield Spectrometer C11347 Quantaurus. All digital photographs were recorded on a Canon EOS 7D camera. A Leica SP8 confocal microscope was used for cell imaging.
# After observing the strong emission of crystalline-state HMPQ, we studied its photophysical properties in a polymer matrix. HMPQ was dissolved and blended with the common polymer poly(methyl methacrylate) (PMMA)^39. A series of films was prepared by coating mixtures with varying weight percentages (wt %) of HMPQ onto a quartz substrate. The resulting films, containing different wt % of HMPQ, were analysed to measure their photoluminescence (PL) and quantum yield (QY) (FIGS. 3A-3D and 14, Table 2).
smiles,measurement,setting,value
"CCC(=O)c1ccc(OC)c(-c2nc3ccccc3c(=O)[nH]2)c1O [HMPQ, 2-(2-hydroxy-6-methoxy-3-propionylphenyl)quinazolin-4(3H)-one]",fluorescence enhancement at 497 nm upon interaction with c-kit2,"[1]; 20 mM KH2PO4 buffer, 70 mM KCl, pH 7.0",around 300 fold
same,Stern-Volmer constant m,"[1]; HMPQ 0.15 mM, c-kit2 0 μM to 50 μM",1.94e+06 M⁻¹
same,interaction with non-G4 nucleotides,[2],no interaction
same,effect on original G4 conformation (CD spectrum),[3],non-disruptive
same,effect on original G4 conformation (CD spectrum),[4],non-disruptive
same,effect on original G4 conformation (CD spectrum),[5],non-disruptive
same,cytotoxicity,[6],no cytotoxicity
same,cytotoxicity,[7],no cytotoxicity
same,cytotoxicity,[8],no cytotoxicity
same,penetration of the cell nucleus,[9]; BG4 as control,efficiently penetrated the cell nucleus
same,Overlap coefficient,[9]; FIG. 6C legend,0.943
same,overlap coefficient with BG4,[9]; HMPQ 10 μM overnight,94.3%
same,QY,[10]; 30 wt % film (HMPQ in PMMA),30.5%
same,Quantum Yield (%),"[10]; Film, 1 wt. % HMPQ in PMMA",25.5%
same,Quantum Yield (%),"[10]; Film, 5 wt. % HMPQ in PMMA",27.9%
same,Quantum Yield (%),"[10]; Film, 10 wt. % HMPQ in PMMA",29.4%
same,Quantum Yield (%),"[10]; Film, 20 wt. % HMPQ in PMMA",30.5%
same,Quantum Yield (%),"[10]; Film, 40 wt. % HMPQ in PMMA",30.0%
same,Quantum Yield (%),"[10]; Film, 60 wt. % HMPQ in PMMA",27.1%
same,Quantum Yield (%),"[10]; Film, 100 wt. % HMPQ",23.0%
same,Quantum Yield (%),"[10]; In DMSO Solution, 10^−5 M",6.7%
same,Quantum Yield (%),"[10]; In THF Solution, 10^−5 M",2.4%
same,Quantum Yield (%),[10]; Solid Powder,3.9%
